{
  "source": "patent US20240140948A1",
  "about": "“PYRIDOPYRIMIDINE DERIVATIVES AS KRAS INHIBITORS” (BETA PHARMA, INC., priority 2021, published 2024)",
  "key": {"KRAS G12C": {"biological_target": "T1, KRAS G12C (Homo sapiens, UniProt P01116, G12C)", "T1 construct": "aa 2-169, expressed in E. coli; His-tag (TEV cleavable) (N); purchased Reaction Biology Corporation (RBC) SOS1: RBC cat #MSC-11-502; KRAS G12C: none printed; host or cells: E. coli", "T1 sequence (P01116 2-169 G12C)": "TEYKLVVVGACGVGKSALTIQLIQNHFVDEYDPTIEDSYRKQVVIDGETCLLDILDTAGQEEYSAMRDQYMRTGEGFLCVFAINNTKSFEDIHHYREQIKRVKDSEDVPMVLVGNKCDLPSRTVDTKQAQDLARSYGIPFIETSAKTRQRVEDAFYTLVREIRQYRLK", "experiment": "KRAS G12C/SOS1 Nucleotide Exchange Assay (SOS1-mediated Bodipy-GDP to GTP exchange)", "format": "biochemical", "details": "substrate Bodipy-GDP/Kras G12C, 0.5% DMSO; 30 min pre-incubation at RT; dRFU analysis method for covalent inhibitors", "description": "The excess Bodipy-GDP is separated from loaded protein using a spin desalting column.\n• 1. […] Deliver compounds in 100% DMSO into buffer using acoustic technology (Echo550; nanoliter range). • 3. […] Prepare 3× (SOS1+GTP) solution in reaction buffer. • 5. Deliver 5 μL of SOS1+GTP solution into reactions wells (deliver GTP only to column 1 for no SOS1 control). • 6.\nwhere Yraw is defined as fluorescence at time t, Ao is the average initial fluorescence with no SOS1, and M is the minimum fluorescence at the end of the reaction at the maximum SOS1.\nThe background subtracted signals (no SOS1 protein wells were used as background) were converted to % activity relative to DMSO controls. Data was analyzed using GraphPad Prism 4 with “sigmoidal dose-response (variable slope)”; 4 parameters with Hill Slope. The constraints were bottom (constant equal to 0) and top (must be less than 120)."}, "[1]": {"experiment": "Pharmacokinetics in male CD-1 mice", "format": "in vivo", "details": "for MRT inf: read-out: MRT0-inf; for MRT last: read-out: MRT0-last", "description": "The pharmacokinetic profile of the Example 2 (compound la) was determined in male CD-1 mice by WuXi AppTec Co., Ltd., 1318 Wuzhong Avenue, Wuzhong District, Suzhou, China, 215104."}, "[2]": {"details": "mouse, 30 mg/kg PO, mean plasma"}},
  "note": "Where two headings read alike, the source gives them in different places.",
  "data": [
    {"smiles": "C=C(F)C(=O)N1CCN(c2nc(OC[C@@H]3CCCN3C)nc3cc(-c4cccc5cccc(Cl)c45)cnc23)C[C@@H]1CC#N", "note": "[Example 2, 2-((S)-4-(7-(8-Chloronaphthalen-1-yl)-2-(((S)-1-methylpyrrolidin-2-yl)methoxy)pyrido[3,2-d]pyrimidin-4-yl)-1-(2-fluoroacryloyl)piperazin-2-yl)acetonitrile]", "values": [
      {"measurement": "IC50", "setting": "KRAS G12C", "result": 63, "unit": "nM"},
      {"measurement": "AUCExtra", "setting": "[1]; 3 mg/kg IV, mean plasma", "result": 9.23, "unit": "%"},
      {"measurement": "AUMCExtra", "setting": "[1]; 3 mg/kg IV, mean plasma", "result": 35.2, "unit": "%"},
      {"measurement": "Tlast", "setting": "[1]; 3 mg/kg IV, mean plasma", "result": 8.00, "unit": "h"},
      {"measurement": "AUCExtra", "setting": "[1]; 30 mg/kg PO, mean plasma", "result": 17.1, "unit": "%"},
      {"measurement": "AUMCExtra", "setting": "[1]; 30 mg/kg PO, mean plasma", "result": 43.8, "unit": "%"},
      {"measurement": "Tlast", "setting": "[1]; 30 mg/kg PO, mean plasma", "result": 8.00, "unit": "h"},
      {"measurement": "AUC(0-inf)", "setting": "[1]; mouse, 3 mg/kg IV, mean plasma", "result": 2450, "unit": "ng·h/mL"},
      {"measurement": "AUC(0-t)", "setting": "[1]; mouse, 3 mg/kg IV, mean plasma", "result": 2220, "unit": "ng·h/mL"},
      {"measurement": "C0", "setting": "[1]; mouse, 3 mg/kg IV, mean plasma", "result": 1270, "unit": "ng/mL"},
      {"measurement": "clearance", "setting": "[1]; mouse, 3 mg/kg IV, mean plasma", "result": 20.4, "unit": "mL/min/kg"},
      {"measurement": "half-life", "setting": "[1]; mouse, 3 mg/kg IV, mean plasma, Rsq_adj 0.828 (<0.9, might not be accurately estimated)", "result": 1.89, "unit": "h"},
      {"measurement": "MRT inf", "setting": "[1]; mouse, 3 mg/kg IV, mean plasma", "result": 2.81, "unit": "h"},
      {"measurement": "MRT last", "setting": "[1]; mouse, 3 mg/kg IV, mean plasma", "result": 2, "unit": "h"},
      {"measurement": "Vd", "setting": "[1]; mouse, 3 mg/kg IV, mean plasma, read-out: Vdss", "result": 3.44, "unit": "L/kg"},
      {"measurement": "AUC(0-inf)", "setting": "[1]; [2]", "result": 7070, "unit": "ng·h/mL"},
      {"measurement": "AUC(0-t)", "setting": "[1]; [2]", "result": 5860, "unit": "ng·h/mL"},
      {"measurement": "Cmax", "setting": "[1]; [2]", "result": 1220, "unit": "ng/mL"},
      {"measurement": "Tmax", "setting": "[1]; [2]", "result": 1, "unit": "h"},
      {"measurement": "half-life", "setting": "[1]; [2]", "result": 2.88, "unit": "h"},
      {"measurement": "MRT inf", "setting": "[1]; [2]", "result": 4.75, "unit": "h"},
      {"measurement": "MRT last", "setting": "[1]; [2]", "result": 3.22, "unit": "h"},
      {"measurement": "bioavailability", "setting": "[1]; mouse, plasma, 30 mg/kg PO vs 3 mg/kg IV, calculated from AUC0-inf with nominal dose, read-out: Bioavailability (% F)", "result": 28.8, "unit": "%"}
    ]},
    {"smiles": "C=CC(=O)N1CCN(c2nc(OC[C@@H]3CCCN3C)nc3cc(-c4cccc5cccc(Cl)c45)cnc23)C[C@@H]1CC#N", "note": "[Example 1, 2-((S)-1-Acryloyl-4-(7-(8-chloronaphthalen-1-yl)-2-(((S)-1-methylpyrrolidin-2-yl)methoxy)pyrido[3,2-d]pyrimidin-4-yl)piperazin-2-yl)acetonitrile]", "values": [
      {"measurement": "IC50", "setting": "KRAS G12C", "result": 27, "unit": "nM"}
    ]}
  ]
}
